Assay results published in patent US5616615A, “Enaminone esters” (priority 1995, dated 1997).
Like-named read-outs stand apart in the source and are kept apart here.

Columns and labels:
[1] = tested on: Subcutaneous Pentylenetetrazol seizure; assay: sc Met subcutaneous pentylenetetrazol (Metrazol) seizure test, mice; type: in vivo; conditions: Mus musculus, sc, read-out: scMet, animals protected/tested (converted)
Method: 2. sc Met--Subcutaneous Pentylenetetrazol (Metrazol^R) Seizure Test
The animal is observed for 30 minutes. Failure to observe even a threshold seizure (a single episode of clonic spasms of at least 5 seconds duration) is defined as protection and the results are expressed as the number of animals protected/the number of animals tested.

[2] = tested on: seizures; assay: Anticonvulsant evaluation (ASP phase I / overall); type: in vivo, mice; conditions: for minimal effective dose: Mus musculus, ip, Phase I, read-out: ASP Classification
In short: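 Male Carworth Farms #1 mice; maximal electroshock seizures elicited by 60-cycle AC, 50 mA, 0.2 s via corneal electrodes after a drop of 0.9% saline in the eye. Animals observed for 30 minutes.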

[3] = in vivo; conditions: mouse, in vivo
Method: The first phase of the ADD Program involved performing tests on male Carworth Farms #1 mice. […] Three tests were performed:
In the second phase of the ADD program protocol, estimates of anticonvulsant activity and neurotoxicity are quantified. The median effective dose (ED50) in the MES, sc Met, and rotorod test is determined. In the case of a compound with apparent activity in only one anticonvulsant test, testing is carried out in the other up to, and in some cases beyond, doses which produce neurological deficit. Compounds which fail to produce minimal neurological deficit are tested whenever possible to doses ten times their lowest anticonvulsant ED50. […] The rotorod ED50 is determined at the time of the peak neurologic deficit.

[4] = Neurotoxicity, rats ip; conditions: 100 mg/kg
Method: The rotorod test is used to elevate neurotoxicity. The animal is placed on a 1 inch diameter knurled plastic rod rotating at 6 rpm. […] Neurologic toxicity is defined as the failure of the animal to remain on the rod for 1 minute and the results are expressed as the number of animals protected/the number of animals tested.
The toxicity evaluation for the commercial agents as previously indicated was based on the onset of ataxia.

[5] = in vivo; conditions: rat, po
Source text: (§1) This oral screen is designated as phase VI.

[6] = tested on: Maximal electroshock seizures; assay: MES maximal electroshock seizure test, mice ip; type: in vivo; set-up: TPE (time of peak effect), activity: unit not given here; conditions: ip; for responders at 100 mg/kg: read-out: MES, animals protected/tested (converted); for responders at 300 mg/kg: read-out: MES, animals protected/tested
Method: Three tests were performed:
1. MES--Electroshock Seizure Test
(§2) Maximal electroshock seizures are elicited with a 60-cycle alternating current of 50 mA intensity (5-7 times that necessary to elicit minimal electroshock seizures) delivered via corneal electrodes for 0.2 seconds. A drop of 0.9% saline is instilled in the eye prior to application of the electrodes in order to […].

[7] = tested on: Maximal electroshock seizures; assay: Phase VI oral MES test, rats; type: in vivo; conditions: for responders at 60 mg/kg / responders at 50 mg/kg: Rattus norvegicus, read-out: MES, animals protected/tested (converted)
Source text: as §2, §1

[8] = tested on: Corneal Kindled rats; set-up: ED50 (reduction from Stage 5 to Stage 4): unit not given beside the values; conditions: po, 1 h, data provided by the ADD Program; 30 min; cited from earlier work

In the case of `CC1(C)CC(=O)C=C(Nc2ccccc2)C1` [Compound 36], the responders at 100 mg/kg ([1]; 0.5 h, 30 min) is reported as 0%, the responders at 300 mg/kg ([1]; 0.5 h, 30 min) is reported as 0% and the responders at 100 mg/kg ([1]; 4 h, 4 h) is reported as 0%. The responders at 300 mg/kg ([1]; 4 h, 4 h) was 0%, the minimal effective dose [2] was less than 100 mg/kg and the “anticonvulsant activity” value ([2]; mouse, in vivo) was “potent anticonvulsants”. The “protective index” value [3] was “modest”, the TD50 ([3]; ip) was 233 mg/kg and the “TPE (time of peak effect), toxicity” value ([3]; ip) was 0.5. For the same molecule, the selectivity ratio ([3]; ip) was 2.13, the animals displaying neurotoxicity/tested ([4]; 0.25 h (Table X-A)) was 5/8 and the animals displaying neurotoxicity/tested ([4]; 0.50 h (Table X-A)) was 7/8. For the same molecule, the animals displaying neurotoxicity/tested ([4]; 1.00 h (Table X-A)) was 6/8, the animals displaying neurotoxicity/tested ([4]; 2.00 h (Table X-A)) was 6/8 and the animals displaying neurotoxicity/tested ([4]; 4.00 h (Table X-A)) was 3/8. For the same molecule, the animals displaying neurotoxicity/tested ([4]; 6.00 h (Table X-A)) was 3/8, the animals displaying neurotoxicity/tested ([4]; 24.00 h (Table X-A)) was 0/8 and the TD50 [5] was greater than 250 mg/kg. For the same molecule, the selectivity ratio [5] was 8.3, the “Tox, animals toxic/tested” value ([5]; 60 mg/kg) was 0/4 and the responders at 100 mg/kg ([6]; Mus musculus, 0.5 h, 30 min) was 66.7%. For the same molecule, the responders at 300 mg/kg ([6]; Mus musculus, 0.5 h, 30 min) was 100%, the responders at 100 mg/kg ([6]; Mus musculus, 4 h, 4 h) was 0% and the responders at 300 mg/kg ([6]; Mus musculus, 4 h, 4 h) was 0%. The ED50 ([6]; Mus musculus, Phase II, time of peak effect) was 109 mg/kg, the “TPE (time of peak effect), activity” value ([6]; Phase II) was 0.5 and the ED50 ([7]; Phase VI, oral, rat) was 30.1 mg/kg. For the same molecule, the “anticonvulsant activity over time” value ([7]; Phase VI, rats) was “anticonvulsant activity is lost after 1 hour”, the responders at 60 mg/kg ([7]; 0.5 h, oral, 0.50 h) was 75% and the responders at 60 mg/kg ([7]; oral, 0.25 h) was 75%. For the same molecule, the responders at 60 mg/kg ([7]; oral, 1.00 h) was 0%, the responders at 60 mg/kg ([7]; oral, 2.00 h) was 0% and the responders at 60 mg/kg ([7]; oral, 4.00 h) was 0%.
In the case of `O=C1CN=C(c2ccccc2Cl)c2cc([N+](=O)[O-])ccc2N1` [clonazepam], the “ED50 (reduction from Stage 5 to Stage 4)” value [8] is listed as 0.70.
`CC1(C)CC(=O)C=C(Nc2ccc(N)cc2)C1` [Compound 142] gave a responders at 100 mg/kg ([1]; 0.5 h, 30 min) of 0%, a responders at 300 mg/kg ([1]; 0.5 h, 30 min) of 0% and a responders at 100 mg/kg ([1]; 4 h, 4 h) of 0%. The responders at 300 mg/kg ([1]; 4 h, 4 h) was 0%, the minimal effective dose [2] was less than 100 mg/kg and the “Tox (rotorod), animals toxic/tested” value ([3]; 100 mg/kg) was 0/2. The “Tox, animals toxic/tested” value ([5]; 50 mg/kg) was 0/4, the responders at 100 mg/kg ([6]; Mus musculus, 0.25 h, Phase II, 0.25 h) was 50% and the responders at 100 mg/kg ([6]; Mus musculus, 0.5 h, 30 min) was 0%. The responders at 300 mg/kg ([6]; Mus musculus, 0.5 h, 30 min) was 100%, the responders at 100 mg/kg ([6]; Mus musculus, 1 h, Phase II, 1.00 h) was 50% and the responders at 100 mg/kg ([6]; Mus musculus, 4 h, 4 h) was 33.3%. It also gave a responders at 300 mg/kg ([6]; Mus musculus, 4 h, 4 h) of 100%, a responders at 50 mg/kg ([7]; 0.5 h, oral, 0.50 h) of 0% and a responders at 50 mg/kg ([7]; oral, 0.25 h) of 0%. For the same molecule, the responders at 50 mg/kg ([7]; oral, 1.00 h) was 0%, the responders at 50 mg/kg ([7]; oral, 2.00 h) was 0% and the responders at 50 mg/kg ([7]; oral, 4.00 h) was 25%.
